Laboratory results: patent US9079821B2, “Quinone based nitric oxide donating compounds” (NICOX S.A., priority 2011, dated 2015)
Where two headings read alike, the source gives them in different places.

Assays:
[1] = tested on: lipid peroxidation of hepatic microsomal membranes; conditions: Method B; values from Chegaev, K. et al. (footnotes a, b); read-out: Antioxidant activity IC50 μM (CL 95%); cited from earlier work
[2] = tested on: lipid peroxidation of hepatic microsomal membranes; assay: In vitro antioxidant activity (TBARS test), Method B (2.5 μM FeSO4); assay type: biochemical, rat; conditions: inhibition of TBARS production, read-out: Antioxidant activity IC50 μM (CL 95%)
Procedure: The antioxidant properties of compounds (6) (disclosed in example 1) and compound (23) (disclosed in example 19) and reference antioxidant compounds were assessed after NADPH-induced lipidic peroxidation of membrane lipids in rat hepatocytes using the detection of 2-thiobarbituric acid reactive substances (TBARS) by visible spectroscopy. Hepatic microsomal membranes from male Wistar rats (200-250 g) were prepared by differential centrifugation (8000 g, 20 min; 120000 g, 1 h) in a HEPES/sucrose buffer (10 mM, 250 mM, pH 7.4) and stored at −80° C. Incubation was performed at 37° C. in a Tris-HCl/KCl (100 mM/150 mM, pH 7.4) containing microsomal membranes (2 mg prot/mL), sodium ascorbate (100 μM), and DMSO solutions of the tested compounds. Lipid peroxidation was initiated by adding ADP-FeCl3 and NADPH (Method A) or 2.5 μM FeSO4 (Method B) (as described by Boschi D. et al., J. Med. Chem. 2006, 49:2886-2897). Aliquots were taken from the incubation mixture at 5, 15, and 30 min and treated with trichloroacetic acid (TCA) 10% w/v. Lipid peroxidation was assessed by spectrophotometric (543 nm) determination of the TBARS consisting mainly of malondialdehyde (MDA). TBARS concentrations (expressed in nmol/mg protein) were obtained by interpolation with a MDA standard curve. […] IC50 values were calculated by nonlinear regression analysis.

[3] = tested on: NADPH-induced lipidic peroxidation of membrane lipids (hepatic microsomal membranes); assay: In vitro antioxidant activity (TBARS test), Method A (ADP-FeCl3 and NADPH); assay type: biochemical, rat; conditions: inhibition of TBARS production after 30 min incubation, read-out: Antioxidant activity IC50 μM (CL 95%)
Procedure: The antioxidant properties of compounds (6) (disclosed in example 1) and compound (23) (disclosed in example 19) and reference antioxidant compounds were assessed after NADPH-induced lipidic peroxidation of membrane lipids in rat hepatocytes using the detection of 2-thiobarbituric acid reactive substances (TBARS) by visible spectroscopy.
Hepatic microsomal membranes from male Wistar rats (200-250 g) were prepared by differential centrifugation (8000 g, 20 min; 120000 g, 1 h) in a HEPES/sucrose buffer (10 mM, 250 mM, pH 7.4) and stored at −80° C. Incubation was performed at 37° C. in a Tris-HCl/KCl (100 mM/150 mM, pH 7.4) containing microsomal membranes (2 mg prot/mL), sodium ascorbate (100 μM), and DMSO solutions of the tested compounds. Lipid peroxidation was initiated by adding ADP-FeCl3 and NADPH (Method A) or 2.5 μM FeSO4 (Method B) (as described by Boschi D. et al., J. Med. Chem. 2006, 49:2886-2897). Aliquots were taken from the incubation mixture at 5, 15, and 30 min and treated with trichloroacetic acid (TCA) 10% w/v. Lipid peroxidation was assessed by spectrophotometric (543 nm) determination of the TBARS consisting mainly of malondialdehyde (MDA). TBARS concentrations (expressed in nmol/mg protein) were obtained by interpolation with a MDA standard curve. The antioxidant activity of tested compounds was evaluated as the percent inhibition of TBARS production with respect to control samples, using the values obtained after 30 min of incubation. IC50 values were calculated by nonlinear regression analysis.

Compound	IC50 [1]	IC50 [3]	further results
CC1=NN(c2ccccc2)C(=O)C1 [Edavarone]	17 µM		
O=C(O)/C=C/c1ccc(O)c(O)c1 [Caffeic acid]			IC50 [2]: 33 µM
COc1ccc2[nH]cc(CCNC(C)=O)c2c1 [Melatonin]	476 µM		
CC1=C(CCCCCCO[N+](=O)[O-])C(=O)c2ccccc2C1=O [Compound (23), 6-(3-methyl-1,4-dioxo-1,4-dihydronaphthalen-2-yl) hexyl nitrate]		1.4 µM	
COC1=C(OC)C(=O)C(CCCCCCCCCCO)=C(C)C1=O [Idebenone, reference compound]		1.6 µM	
